Assay results as given in patent publication US20240016924A1, “NEW ADJUVANT TO IMPROVE THE INNATE IMMUNITY” (INSTITUT NATIONAL DE LA SANTÉ ET DE LA RECHERCHE MÉDICALE, priority 2020, published 2024).

Legend:
Assay type in all cases: cell-based, human
nasal RPMI cells [1] = assay: Cytokines and chemokines quantification (Luminex), nasal RPMI cells; details: 125 μM, 24 hrs
Description: (§1) TSLP, IL-25/IL-17E, IL-33, IFN-γ, IL-10, IL-12/23p40, IL-4, IL-5, IL-6, IL-13, TNF-α, MMP-9, IL-8/CXCL8, […], MDC/CCL22, TARC/CCL17, APRIL and BAFF were measured in culture supernatants from indicated experiments with custom multiplex Luminex assays (Bio-techne) according to the manufacturer's instructions. Additionally, when indicated TSLP was measured in culture supernatants by enzyme-linked immunosorbent assay (ELISA) with a limit of detection of 8 pg/ml (Thermo Fisher) according to the manufacturer's instructions.
We next investigated whether, in addition to TSLP, P1 could stimulate epithelial secretion of additional immune factors prone to attract antigen presenting cells (APCs). […] Together with TSLP (Zhou, Xu et al. 2018), this set of immune factors could facilitate recruitment of APCs to the mucosal surface for initiation of an immune response, since CCL20 and CCL2 chemo-attract macrophages and immature dendritic cells (DCs), and MMP-9 degrades the extracellular matrix and facilitates the migration of immune cells in or out the epithelium. Treg cells have IgA-inducing functions and require RA, TGF-b1, IL-10, and TSLP from intestinal epithelial cells and DCs. So, we assumed IL-10 released from either EC or DC may contribute to IgA class switching (Gutzeit, Magri, et al. 2014).

primary HNEC cells = assay: Calcium measurement (Fura-2/AM), primary HNEC cells; details: P1 125 μM vs 2511M, controls at 125 μM, n=3
Description: 70-80% confluent RPMI 2650 or HNEC cells in 24-well plate were loaded with […] Fura-2/AM (Molecular Probes) in basal medium without serum/growth factors for 1 hour at 37° C. Cells were washed twice with mammalian saline (Conche, Boulla et al. 2009) and measurements were performed in complete medium supplied with HEPS (10 mM) and CaCl2 (2 mM) as described add (Conche, Boulla et al. 2009). Images were acquired with an inverted fluorescence microscope (Observer Z1, Zeiss, Germany) and analyzed with MetaMorph software (Guichard, Bonilla et al. 2017) Calcium was measured every 5 seconds by video fluorescence imaging. Results were expressed as 340 nm to 380 nm fluorescence ratio and normalized to the baseline, i.e. ratio at time zero was set as 1.

primary HNECs = assay: MicroRNA microarray analysis and miR qPCR after P1 stimulation
Description: Confluent HNECs in 12-well plate were stimulated with medium or P1 (clade B, 125 μM) for 6 hours, at 37° C. Total RNA was extracted using Trizol. Before analysis, lfTSLP RNA up-regulation was confirmed by qPCR as described above and RNA quality was assessed with Agilent 2100 bioanalyzer according to manufacturer instructions (Agilent Technologies). Three untreated and treated paired samples from three independent experiments were analyzed by GeneChip miRNA 4.0 arrays (Affymetrix, Thermo Fisher) containing probes for 2578 human mature microRNAs and 2025 pre-mature microRNAs (https://assets.thermofisher.com/TFS-Assets/LSG/brochures/miRNA_4-0_and_4-1_datasheet.pdf). Potential microRNA targets were analyzed with the Ingenuity Pathway Analysis (IPA) software (Qiagen).
The quantification and knockdown of microRNA were performed as previously described with some modifications (Zhou, Xu et al. 2018). Briefly, total RNA was purified using MinElute PCR Purification Kit (Qiagen), the expression level of miR-4485 was quantified with TaqMan Small RNA Assays (Thermo Fisher). Reactions were performed in triplicates, and U6 was used as endogenous control. In order to knockdown miR-4485, 70% confluent HNEC cells were transfected with anti-miR-4485 inhibitor (67 nM, Qiagen) or mock inhibitor (miSCRIPT inhibitor negative control, 67 nM, Qiagen) using Lipofectamine RNAiMAX (Invitrogen) as described by the manufacturer. 36 h after transfection, miR-4485 expression, when quantified as described above, was reduced by 50-60% in anti-miR-4485 transfected cells as compared to anti-miR control (n=3 independent experiments).

RPMI 2650 cells = assay: TSLP secretion in nasal RPMI 2650 cell culture supernatants (ELISA)
Description: Nasal RPMI 2650 cells (isolated from the human nasal septum, squamous cell carcinoma, ATCC) were grown in MEMα (Minimum Essential Medium α, Thermo Fisher) supplemented with 10% fetal calf serum (FCS, Eurobio, Courtaboeuf, France) and 1% penicillin/streptomycin.
as §1
We first investigate whether P1 induced TSLP secretion in nasal epithelium. Therefore, we cultured human nasal epithelial cells (RPMI 2650) with P1 Glade B for 2-24 hours at 37° C. and analyzed the culture supernatants for TSLP secretion.

nasal RPMI cells [2] = assay: Quantitative RT-PCR for short and long form TSLP, nasal RPMI cells
Description: The expression of short and long form TSLP was quantified as described (Bjerkan, Schreurs et al. 2015, Dong, Hu et al. 2016). Briefly, total RNA was extracted using Trizol. Five hundred nanograms of RNA were treated with ezDNase Enzyme (Thermo Fisher) to remove genomic DNA, and reverse transcribed into cDNA using the kit SuperScript IV VILO Master Mix according to manufacturer instructions (Thermo Fisher). Quantitative PCR was performed using reported primers (Dong, Hu et al. 2016) and the PowerUp SYBR Green Master Mix according to manufacturer instructions (Thermo Fisher). Reactions were performed in triplicates, with glyceraldehyde-3-phosphate dehydrogenase (GAPDH) as the internal control. Amplification, data acquisition, and analysis were carried out using the LightCycler 480 Software (Roche, Mannheim, Germany). The levels of TSLP mRNA were normalized to the levels of GAPDH using the ΔCt method (Schmittgen and Livak 2008) and were presented as 2-ΔCt values.

In the case of “SQNQQEKNEQELLELDKWASLWNWFNITNWLWYIK [P1]”, the “secretion of MMP-9, CCL20, CCL2 and IL-10” value (nasal RPMI cells [1]) is reported as “selectively induced the secretion of MMP-9, CCL20, CCL2 and IL-10”, the “extracellular calcium influx (340/380 nm ratio)” value (primary HNEC cells) is reported as “induces an immediate extracellular calcium influx in a concentration-dependent manner” and the “miR-4485-3p increase, microRNA array” value (primary HNECs; P1 125 μM, 6 hours) is reported as greater than 9 fold. For the same sequence, the “number of differentially expressed microRNAs” value (primary HNECs; P1 125 μM, 6 hours, microRNA array, p<0.05, 23 up-regulated, 16 down-regulated) was 39, the miR-375 expression (primary HNECs; primary HNECs, P1 stimulation) was “not accompanied by a change in miR-375 expression” and the “increase in miR-4485-3p expression, qPCR” value (primary HNECs; upon P1 stimulation, n=4) was 2.6±0.8 fold. The “TSLP secretion time course” value (RPMI 2650 cells; 2-24 hours at 37° C.) was “reaching a plateau from 4 to 24 h”, the TSLP secretion (RPMI 2650 cells; P1 5, 25, 125 μM, 2 h to 4 h, compared with medium and scramble peptides) was “upregulates TSLP secretion in a dose-dependent manner” and the “TSLP secretion, trimeric versus monomeric state” value (RPMI 2650 cells; P1 at 125 μM versus 5 μM and 25 μM) was “significantly higher secretion of TSLP”. The “Secretion of TSLP” value (RPMI 2650 cells; peptide at 125 uM, 4 hours, n=5) was 52.3 ± 3.4 pg/mL, the “increase of lfTSLP transcription compared to unstimulated cells” value (nasal RPMI cells [2]; p=0.02, n=5) was 1.9 fold and the “level of the sfTSLP transcript” value (nasal RPMI cells [2]; upon P1 stimulation) was “remains unchanged”.
